15 molecules from the Kinase Knowledgebase extract (Sharma et al. 2016) can be followed below.

Where only a bound is given, the exact number is not on record here.

For the experiment, the target named is MAPK14 (human) (UniProt Q16539). Nature of the experiment: Inhibition of MAPK14 Kinase Activity. The settings on record: Monocyte.
Sequence of MAPK14 (human) (Q16539 whole entry, looked up): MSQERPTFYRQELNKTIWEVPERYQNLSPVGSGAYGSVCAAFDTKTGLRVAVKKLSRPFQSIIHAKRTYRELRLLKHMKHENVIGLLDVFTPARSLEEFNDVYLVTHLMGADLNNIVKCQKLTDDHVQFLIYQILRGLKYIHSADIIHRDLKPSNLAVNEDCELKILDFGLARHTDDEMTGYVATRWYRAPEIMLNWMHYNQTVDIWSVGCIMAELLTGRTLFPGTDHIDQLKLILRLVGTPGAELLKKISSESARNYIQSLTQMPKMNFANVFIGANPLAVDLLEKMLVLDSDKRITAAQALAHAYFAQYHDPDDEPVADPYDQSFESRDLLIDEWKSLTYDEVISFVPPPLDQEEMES
The IC50 is the concentration that inhibits the measured activity by half. Read a high IC50 as weaker potency. As for `Cc1cc(OCc2ccc(F)cc2F)c(Br)c(=O)n1Cc1ccc(C(=O)N2CCOCC2)o1`, the IC50 was < 1000 nM.

With `Cc1ccc(C(N)=O)cc1-n1c(C)cc(OCc2ccc(F)cc2CNC(=O)NC2CC2)c(Cl)c1=O`, the IC50 is < 1000 nM.

With `Cc1cc(OCc2ccc(F)cc2F)c(Br)c(=O)n1-c1ccc(CNC(=O)C(C)(C)O)cc1`, the IC50 was < 1000 nM.

Turning to `Cc1ccc(C(N)=O)cc1-n1c(C)cc(OCc2ccc(F)cc2F)c(Br)c1=O`, the IC50 was < 1000 nM.

With `CNCC(=O)NCc1ccc(Cn2c(C)cc(OCc3ccc(F)cc3F)c(Br)c2=O)cc1`, the IC50 was < 1000 nM.

As to `Cc1cc(OCc2ccc(F)cc2F)c(Br)c(=O)n1-c1c(F)cc(C(O)COC(N)=O)cc1F` (stereo not given), the IC50 is < 1000 nM.

Turning to `Cc1cc(OCc2ccc(F)cc2F)c(Cl)c(=O)n1Cc1ccc2c(c1)CN(C(=O)C(C)(C)O)C2`, the IC50 was < 1000 nM.

Take `Cc1cc(OCc2ccc(F)cc2C(N)=O)c(Br)c(=O)n1-c1c(F)cccc1F`: the half-inhibitory concentration (IC50) fell in the range of 25000 to 100000 nM.

The molecule `CNC(=O)c1ccc(C(C)n2c(C)cc(OCc3ccc(F)cc3F)c(Br)c2=O)cc1` (stereo not given) displayed an IC50 of 1000 to 25000 nM.

The molecule `Cc1cc(OCc2ccc(F)cc2F)c(Br)c(=O)n1Cc1ccc(C(=O)NCCO)o1` came in with a concentration for half-maximal inhibition (IC50) of 1000 to 25000 nM.

Take `Cc1cc(OCc2ccc(F)cc2F)c(Br)c(=O)n1Cc1cnc(CNC(=O)CN)nc1`: the IC50 was < 1000 nM.

As to `Cc1cc(OCc2ccc(F)cc2F)c(Br)c(=O)n1-c1ccc(C(=O)N(C)C)cc1C(F)(F)F`, the IC50 is 1000 to 25000 nM.

For the molecule `Cc1cc(OCc2ccc(F)cc2F)c(Br)c(=O)n1-c1c(F)cc(/C=C/CO)cc1F`, the IC50 is < 1000 nM.

As to `Cc1cc(OCc2ccc(F)cc2F)c(Br)c(=O)n1Cc1cnc(N(C)C)nc1`, the half-maximal inhibitory concentration (IC50) is < 1000 nM.

In the case of `Cc1cc(OCc2ccc(F)cc2F)c(Br)c(=O)n1Cc1cc[nH]n1`, the IC50 is < 1000 nM.
